Experimental data taken from the NIST ThermoML archive (doi:10.1016/j.jct.2011.01.014).

Test: xn = mol fraction of the nth substance listed
Settings: 101 kPa, Liquid; for speed of sound: sound velocity cell; for mass density: Vibrating tube method

CC(=O)[O-].[NH3+]CCO [2-hydroxyethylammonium acetate] + O
Settings | mass density [kg/m3] | speed of sound [m/s]
305.65 K, x1 = 0.051 | – | 1689.8
305.65 K, x1 = 0.1019 | – | 1763.6
305.65 K, x1 = 0.1963 | – | 1817.3
305.65 K, x1 = 0.2894 | – | 1823.5
305.65 K, x1 = 0.3959 | – | 1811.5
305.65 K, x1 = 0.5016 | – | 1799.8
305.65 K, x1 = 0.5821 | – | 1797
305.65 K, x1 = 0.6837 | – | 1788.2
305.65 K, x1 = 0.7763 | – | 1786.6
305.65 K, x1 = 0.8761 | – | 1776.6
305.65 K, x1 = 0.9137 | – | 1778.1
305.65 K, x1 = 1 | – | 1773.4
308.15 K, x1 = 0.051 | 1047.04 | 1690.8
308.15 K, x1 = 0.1019 | 1076 | 1762.3
308.15 K, x1 = 0.1963 | 1106.1 | 1814
308.15 K, x1 = 0.2894 | 1120.43 | 1819.3
308.15 K, x1 = 0.3959 | 1129.69 | 1806.9
308.15 K, x1 = 0.5016 | 1134.77 | 1795
308.15 K, x1 = 0.5821 | 1137.3 | 1792.1
308.15 K, x1 = 0.6837 | 1139.14 | 1783.2
308.15 K, x1 = 0.7763 | 1140.95 | 1781.4
308.15 K, x1 = 0.8761 | 1142.23 | 1771.3
308.15 K, x1 = 0.9137 | 1142.59 | 1772.8
308.15 K, x1 = 1 | 1143.39 | 1767.9
310.65 K, x1 = 0.051 | 1045.86 | 1691.5
310.65 K, x1 = 0.1019 | 1074.78 | 1760.8
310.65 K, x1 = 0.1963 | 1104.76 | 1810.6
310.65 K, x1 = 0.2894 | 1119.06 | 1815.2
310.65 K, x1 = 0.3959 | 1128.3 | 1802.4
310.65 K, x1 = 0.5016 | 1133.38 | 1790.2
310.65 K, x1 = 0.5821 | 1135.91 | 1787.2
310.65 K, x1 = 0.6837 | 1137.76 | 1778.2
310.65 K, x1 = 0.7763 | 1139.58 | 1776.3
310.65 K, x1 = 0.8761 | 1140.87 | 1766
310.65 K, x1 = 0.9137 | 1141.2 | 1767.5
310.65 K, x1 = 1 | 1141.96 | 1762.5
313.15 K, x1 = 0.051 | 1044.65 | 1692
313.15 K, x1 = 0.1019 | 1073.54 | 1759.2
313.15 K, x1 = 0.1963 | 1103.42 | 1807.1
313.15 K, x1 = 0.2894 | 1117.69 | 1811.1
313.15 K, x1 = 0.3959 | 1126.9 | 1797.7
313.15 K, x1 = 0.5016 | 1131.98 | 1785.3
313.15 K, x1 = 0.5821 | 1134.53 | 1782.3
313.15 K, x1 = 0.6837 | 1136.37 | 1773.2
313.15 K, x1 = 0.7763 | 1138.21 | 1771.3
313.15 K, x1 = 0.8761 | 1139.5 | 1760.8
313.15 K, x1 = 0.9137 | 1139.84 | 1762.3
313.15 K, x1 = 1 | 1140.55 | 1757.2
315.15 K, x1 = 0.051 | 1043.45 | –
315.15 K, x1 = 0.1019 | 1072.29 | –
315.15 K, x1 = 0.1963 | 1102.07 | –
315.15 K, x1 = 0.2894 | 1116.31 | –
315.15 K, x1 = 0.3959 | 1125.5 | –
315.15 K, x1 = 0.5016 | 1130.58 | –
315.15 K, x1 = 0.5821 | 1133.13 | –
315.15 K, x1 = 0.6837 | 1134.98 | –
315.15 K, x1 = 0.7763 | 1136.83 | –
315.15 K, x1 = 0.8761 | 1138.14 | –
315.15 K, x1 = 0.9137 | 1138.48 | –
315.15 K, x1 = 1 | 1139.18 | –
315.65 K, x1 = 0.051 | – | 1692.3
315.65 K, x1 = 0.1019 | – | 1757.5
315.65 K, x1 = 0.1963 | – | 1803.5
315.65 K, x1 = 0.2894 | – | 1806.9
315.65 K, x1 = 0.3959 | – | 1793.1
315.65 K, x1 = 0.5016 | – | 1780.5
315.65 K, x1 = 0.5821 | – | 1777.4
315.65 K, x1 = 0.6837 | – | 1768.2
315.65 K, x1 = 0.7763 | – | 1766.2
315.65 K, x1 = 0.8761 | – | 1755.7
315.65 K, x1 = 0.9137 | – | 1757.1
315.65 K, x1 = 1 | – | 1751.9
318.15 K, x1 = 0.051 | 1042.25 | 1692.3
318.15 K, x1 = 0.1019 | 1071.02 | 1755.5
318.15 K, x1 = 0.1963 | 1100.71 | 1799.9
318.15 K, x1 = 0.2894 | 1114.92 | 1802.6
318.15 K, x1 = 0.3959 | 1124.1 | 1788.4
318.15 K, x1 = 0.5016 | 1129.18 | 1775.6
318.15 K, x1 = 0.5821 | 1131.74 | 1772.5
318.15 K, x1 = 0.6837 | 1133.59 | 1763.2
318.15 K, x1 = 0.7763 | 1135.45 | 1761.2
318.15 K, x1 = 0.8761 | 1136.76 | 1750.5
318.15 K, x1 = 0.9137 | 1137.11 | 1751.9
318.15 K, x1 = 1 | 1137.82 | 1746.5
320.65 K, x1 = 0.051 | 1041.08 | 1692.2
320.65 K, x1 = 0.1019 | 1069.74 | 1753.5
320.65 K, x1 = 0.1963 | 1099.34 | 1796.1
320.65 K, x1 = 0.2894 | 1113.53 | 1798.2
320.65 K, x1 = 0.3959 | 1122.69 | 1783.6
320.65 K, x1 = 0.5016 | 1127.77 | 1770.7
320.65 K, x1 = 0.5821 | 1130.35 | 1767.6
320.65 K, x1 = 0.6837 | 1132.19 | 1758.2
320.65 K, x1 = 0.7763 | 1134.06 | 1756.1
320.65 K, x1 = 0.8761 | 1135.38 | 1745.3
320.65 K, x1 = 0.9137 | 1135.73 | 1746.7
320.65 K, x1 = 1 | 1136.45 | 1741.3
323.15 K, x1 = 0.051 | 1040.15 | 1691.8
323.15 K, x1 = 0.1019 | 1068.47 | 1751.2
323.15 K, x1 = 0.1963 | 1097.97 | 1792.3
323.15 K, x1 = 0.2894 | 1112.14 | 1793.9
323.15 K, x1 = 0.3959 | 1121.29 | 1778.9
323.15 K, x1 = 0.5016 | 1126.36 | 1765.9
323.15 K, x1 = 0.5821 | 1128.95 | 1762.8
323.15 K, x1 = 0.6837 | 1130.79 | 1753.3
323.15 K, x1 = 0.7763 | 1132.67 | 1751
323.15 K, x1 = 0.8761 | 1134 | 1740.2
323.15 K, x1 = 0.9137 | 1134.36 | 1741.5
323.15 K, x1 = 1 | 1135.08 | 1736
